Assay results as given in patent publication US20240366589A1, “NHE3-BINDING COMPOUNDS AND METHODS FOR INHIBITING PHOSPHATE TRANSPORT” (Ardelyx, Inc., priority 2013, published 2024).

Tests used:
Rat NHE3 = molecular target: T1, Rat NHE3 (Rattus norvegicus, UniProt P26433); experiment: Cell-based NHE3 activity under prompt conditions (OK cells, BCECF pH recovery), rat NHE3; details: prompt conditions
T1 construct: expressed in transfected cells; host or cells: Opossum kidney (OK) cells (ATCC), electroporation
Procedure, shortened: (§1)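 Cells (OK line, electroporated with rat or human NHE3) are washed in NaCl-HEPES pH 7.4, then dye-loaded 30 min at room temperature with 5 μM BCECF-AM in NH4Cl buffer.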

Human NHE3 = molecular target: T2, Human NHE3 (Homo sapiens, UniProt P48764); experiment: Cell-based NHE3 activity under prompt conditions (OK cells, BCECF pH recovery), human NHE3; details: prompt conditions
T2 construct: expressed in transfected cells; host or cells: Opossum kidney (OK) cells (ATCC), electroporation
T2 sequence (P48764 26-834): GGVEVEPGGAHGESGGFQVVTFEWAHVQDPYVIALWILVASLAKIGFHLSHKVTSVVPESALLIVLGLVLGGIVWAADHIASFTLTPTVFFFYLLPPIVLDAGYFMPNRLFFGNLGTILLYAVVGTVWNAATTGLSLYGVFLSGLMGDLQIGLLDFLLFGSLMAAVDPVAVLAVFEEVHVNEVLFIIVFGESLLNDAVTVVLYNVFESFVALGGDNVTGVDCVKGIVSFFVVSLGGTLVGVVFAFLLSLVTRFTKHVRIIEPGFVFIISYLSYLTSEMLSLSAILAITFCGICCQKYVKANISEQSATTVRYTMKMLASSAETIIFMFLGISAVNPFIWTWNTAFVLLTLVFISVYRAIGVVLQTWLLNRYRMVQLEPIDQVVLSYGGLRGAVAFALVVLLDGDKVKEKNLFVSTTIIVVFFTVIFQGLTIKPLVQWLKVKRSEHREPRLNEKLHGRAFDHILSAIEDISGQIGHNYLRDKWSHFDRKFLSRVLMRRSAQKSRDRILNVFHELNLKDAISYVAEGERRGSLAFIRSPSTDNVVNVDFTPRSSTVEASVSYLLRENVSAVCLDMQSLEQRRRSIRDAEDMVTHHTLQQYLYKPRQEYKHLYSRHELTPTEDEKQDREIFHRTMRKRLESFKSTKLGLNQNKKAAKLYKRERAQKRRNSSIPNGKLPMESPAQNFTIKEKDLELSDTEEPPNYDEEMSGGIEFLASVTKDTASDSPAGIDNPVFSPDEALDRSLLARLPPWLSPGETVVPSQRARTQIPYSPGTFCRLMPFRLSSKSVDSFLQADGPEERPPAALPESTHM
Procedure, shortened: as §1

[1] = tested on: absorption of sodium from the intestinal lumen; experiment: Inhibition of intestinal sodium absorption: urinary sodium (uNa) 16 h after single oral dose in rats; type: in vivo, rat; details: oral gavage, 16 h post-dose
Procedure, shortened: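 Eight-week-old Sprague-Dawley rats (n=6) given single oral gavage of compound or water vehicle in the late afternoon, then kept in metabolic cages with chow and water ad libitum. Urine collected over 16 h; sodium quantified by ion chromatography and expressed as % of vehicle mean, compared by one-way ANOVA with Dunnett's test.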

[2] = tested on: absorption of sodium from the intestinal lumen; experiment: Fecal form score (FFS) 16 h after oral dose in rats; type: in vivo, rat; details: oral gavage, 16 h post-dose, scale 1-5
Procedure, shortened: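 Eight-week-old Sprague-Dawley rats (n=6) dosed by oral gavage with compound or water vehicle between 4 and 5 PM, then housed in metabolic cages with food and water ad libitum. At 16 h, fecal form scored 1 (normal pellet) to 5 (liquid streams) by two observers; group mean reported.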

[3] = tested on: phosphorus and calcium levels in the urine of rats; experiment: Urinary excretion of phosphate and calcium in rats (16 h overnight urine); type: in vivo, rat; details: rats, oral gavage, 16 h post-dose

T1 sequence (P26433 29-831): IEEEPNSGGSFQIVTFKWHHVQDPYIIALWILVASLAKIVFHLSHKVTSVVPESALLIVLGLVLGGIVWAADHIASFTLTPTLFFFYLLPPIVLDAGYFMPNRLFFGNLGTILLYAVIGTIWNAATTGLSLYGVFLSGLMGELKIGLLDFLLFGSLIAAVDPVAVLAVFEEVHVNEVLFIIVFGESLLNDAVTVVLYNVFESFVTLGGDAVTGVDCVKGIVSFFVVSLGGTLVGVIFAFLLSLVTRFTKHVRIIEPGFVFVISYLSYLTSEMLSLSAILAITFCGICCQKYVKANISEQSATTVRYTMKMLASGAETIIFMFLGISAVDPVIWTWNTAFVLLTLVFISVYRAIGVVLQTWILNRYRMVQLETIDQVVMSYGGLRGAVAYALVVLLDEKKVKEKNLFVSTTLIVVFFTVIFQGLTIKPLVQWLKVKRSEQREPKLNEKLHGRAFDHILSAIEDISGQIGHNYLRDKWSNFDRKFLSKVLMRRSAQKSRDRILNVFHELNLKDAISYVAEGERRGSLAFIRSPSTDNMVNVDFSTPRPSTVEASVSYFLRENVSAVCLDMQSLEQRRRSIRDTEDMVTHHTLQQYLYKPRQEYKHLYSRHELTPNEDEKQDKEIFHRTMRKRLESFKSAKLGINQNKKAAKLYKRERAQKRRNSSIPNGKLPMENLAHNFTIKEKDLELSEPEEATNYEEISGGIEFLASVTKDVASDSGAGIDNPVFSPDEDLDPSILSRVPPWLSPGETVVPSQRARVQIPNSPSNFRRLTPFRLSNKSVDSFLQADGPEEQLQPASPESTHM

CN1Cc2c(Cl)cc(Cl)cc2[C@H](c2cccc(S(=O)(=O)NCCOCCOCCNC(=O)CCC(CCC(=O)NCCOCCOCCNS(=O)(=O)c3cccc([C@@H]4CN(C)Cc5c(Cl)cc(Cl)cc54)c3)(CCC(=O)NCCOCCOCCNS(=O)(=O)c3cccc([C@@H]4CN(C)Cc5c(Cl)cc(Cl)cc54)c3)NC(=O)N(C)C[C@H](O)[C@@H](O)[C@H](O)[C@H](O)CO)c2)C1 [compound 142]
Prompt Rat NHE3 pIC50 (Rat NHE3): 8.10 | Prompt Human NHE3 pIC50 (Human NHE3): 7.10 | Urine Na % of control ([1]; dose 3 mg/kg): 45% | Fecal Form Score average ([2]; dose 3 mg/kg): 2 | Urine P % of control ([3]; dose 3 mg/kg): 38%

CN1Cc2c(Cl)cc(Cl)cc2[C@H](c2cccc(S(=O)(=O)NCCOCCOCCNC(=O)CCC(CCC(=O)NCCOCCOCCNS(=O)(=O)c3cccc([C@@H]4CN(C)Cc5c(Cl)cc(Cl)cc54)c3)(CCC(=O)NCCOCCOCCNS(=O)(=O)c3cccc([C@@H]4CN(C)Cc5c(Cl)cc(Cl)cc54)c3)NC(=O)NC[C@H](O)[C@@H](O)[C@H](O)[C@H](O)CO)c2)C1 [compound 143]
Prompt Rat NHE3 pIC50 (Rat NHE3): 7.25 | Prompt Human NHE3 pIC50 (Human NHE3): 7.27 | Urine Na % of control ([1]; dose 1 mg/kg): 68% | Urine Na % of control ([1]; dose 3 mg/kg): 34% | Fecal Form Score average ([2]; dose 1 mg/kg): 1 | Fecal Form Score average ([2]; dose 3 mg/kg): 3 | Urine P % of control ([3]; dose 1 mg/kg): 73% | Urine P % of control ([3]; dose 3 mg/kg): 93%

CN1Cc2c(Cl)cc(Cl)cc2[C@H](c2cccc(S(=O)(=O)NCCOCCOCCNC(=O)CCC(CCC(=O)NCCOCCOCCNS(=O)(=O)c3cccc([C@@H]4CN(C)Cc5c(Cl)cc(Cl)cc54)c3)(CCC(=O)NCCOCCOCCNS(=O)(=O)c3cccc([C@@H]4CN(C)Cc5c(Cl)cc(Cl)cc54)c3)NC(=O)NCCN3CCOCC3)c2)C1 [compound 144]
Prompt Rat NHE3 pIC50 (Rat NHE3): 7.20 | Prompt Human NHE3 pIC50 (Human NHE3): 7.77 | Urine Na % of control ([1]; dose 3 mg/kg): 32% | Fecal Form Score average ([2]; dose 3 mg/kg): 2 | Urine P % of control ([3]; dose 3 mg/kg): 47%

CC1Cc2c(Cl)cc(Cl)cc2[C@H](c2cccc(S(=O)(=O)NCCOCCOCCNC(=O)CCC(CCC(=O)NCCOCCOCCNS(=O)(=O)c3cccc([C@@H]4CN(C)Cc5c(Cl)cc(Cl)cc54)c3)(CCC(=O)NCCOCCOCCNS(=O)(=O)c3cccc([C@@H]4CN(C)Cc5c(Cl)cc(Cl)cc54)c3)NC(=O)N[C@@H](CC(=O)O)C(=O)O)c2)C1 (some centres unmarked) [compound 145]
IC50 (Rat NHE3; read-out: Prompt Rat NHE3 pIC50 (converted)): 25.1 nM | IC50 (Human NHE3; read-out: Prompt Human NHE3 pIC50 (converted)): 20 nM | Urine Na % of control ([1]; dose 3 mg/kg): 41% | Fecal Form Score average ([2]; dose 3 mg/kg): 3 | Urine P % of control ([3]; dose 3 mg/kg): 51%

CN1Cc2c(Cl)cc(Cl)cc2[C@H](c2cccc(S(=O)(=O)N(CCO)CCOCCOCCNC(=O)NCCCN(CCCNC(=O)NCCOCCOCCN(CCO)S(=O)(=O)c3cccc([C@@H]4CN(C)Cc5c(Cl)cc(Cl)cc54)c3)CCCNC(=O)NCCOCCOCCN(CCO)S(=O)(=O)c3cccc([C@@H]4CN(C)Cc5c(Cl)cc(Cl)cc54)c3)c2)C1 [compound 146]
Prompt Rat NHE3 pIC50 (Rat NHE3): 7.80 | Prompt Human NHE3 pIC50 (Human NHE3): 8.35 | Urine Na % of control ([1]; dose 3 mg/kg): 70% | Fecal Form Score average ([2]; dose 3 mg/kg): 2 | Urine P % of control ([3]; dose 3 mg/kg): 58%

CN1Cc2c(Cl)cc(Cl)cc2[C@H](c2cccc(S(=O)(=O)NCCOCCOCCNC(=O)NCCCC(N)(CCCNC(=O)NCCOCCOCCNS(=O)(=O)c3cccc([C@@H]4CN(C)Cc5c(Cl)cc(Cl)cc54)c3)CCCNC(=O)NCCOCCOCCNS(=O)(=O)c3cccc([C@@H]4CN(C)Cc5c(Cl)cc(Cl)cc54)c3)c2)C1 [compound 147]
Prompt Rat NHE3 pIC50 (Rat NHE3): 7.00 | Prompt Human NHE3 pIC50 (Human NHE3): 7.67 | Urine Na % of control ([1]; dose 3 mg/kg): 40% | Fecal Form Score average ([2]; dose 3 mg/kg): 2 | Urine P % of control ([3]; dose 3 mg/kg): 32%

CN(C)[C@H]1Cc2c(Cl)cc(Cl)cc2[C@@H]1Oc1ccc(S(=O)(=O)NCCOCCOCCNC(=O)CCC(=O)NCCOCCOCCNS(=O)(=O)c2ccc(O[C@H]3c4cc(Cl)cc(Cl)c4C[C@@H]3N(C)C)cc2)cc1 [compound 148]
Prompt Rat NHE3 pIC50 (Rat NHE3): 8.40 | Prompt Human NHE3 pIC50 (Human NHE3): 7.80 | Urine Na % of control ([1]; dose 3 mg/kg): 49% | Fecal Form Score average ([2]; dose 3 mg/kg): 1 | Urine P % of control ([3]; dose 3 mg/kg): 146%
